In patent US7763601B2, “Prevention and treatment of obesity” (N-Gene Research Laboratories, Inc., priority 2006, dated 2010):

Columns and labels:
female NMRI mice = experiment: Body weight gain induced by olanzapine or clozapine in mice, 15 days; assay type: in vivo, mouse; conditions: agent alone p.o. for 15 days (olanzapine 0.5, clozapine 1, BGP-15 10 mg/kg); between first and 15th day; control 2.98 g
Experimental: Groups of female NMRI mice were treated with vehicle (control group) and the agents to be tested for 15 days, perorally. Each group consisted of 10 animals fed with normal laboratory chow and tap water ad libitum. Treatments were performed between 5 and 6 pm, shortly before the dark phase, the primary feeding period of the day. Olanzapine was administered in a dose of 0.5 mg/kg, while clozapine was administered in a dose of 1 mg/kg to induce body weight gain.

female Wistar rats [1] = experiment: Body weight gain induced by olanzapine in rats, 28 days; assay type: in vivo, rat; conditions: for Body weight (average in the group): day 28, control 255 g
Experimental: Groups of female Wistar rats were treated with vehicle (control group) and the agents to be tested for 28 days. Each group consisted of 6 animals fed with normal laboratory chow and tap water ad libitum. The agents to be tested were administered twice daily, at 8 h and 18 h, perorally. The antipsychotic olanzapine was administered in a dose of 1 mg/kg to induce body weight gain.

female Wistar rats [2] = experiment: Body weight gain induced by risperidone in rats, 21 days; assay type: in vivo, rat; conditions: for Body weight gain: day 21, control 27 g
Experimental: The experiments were carried out in eight-week-old female Wistar rats. Each test group consisted of 10 animals fed with normal laboratory chow and tap water ad libitum. The animals were treated with vehicle (control group) and the compounds to be tested for 21 days. In this experimental system, the antipsychotic risperidone was injected subcutaneously once daily in doses of 0.005 and 0.05 mg/kg, respectively to induce body weight gain.

[3] = agent alone, p.o. twice daily for 28 days (olanzapine 1, BGP-15 10, metformin 100, rosiglitazone 3 mg/kg), starting weight 171 g
[4] = agent together with olanzapine 1 mg/kg, p.o. twice daily for 28 days (BGP-15 10, metformin 100, rosiglitazone 3 mg/kg), olanzapine alone 330 g

Row | Structure (SMILES) | Body weight gain (average in the group) (female NMRI mice) | effect on average weight relative to the control group (female Wistar rats [1]; agent alone, 28 days) | Body weight (average in the group) (female Wistar rats [1]; [3]) | Body weight (average in the group) (female Wistar rats [1]; [4]) | further results
1 | CN1CCN(C2=Nc3cc(Cl)ccc3Nc3ccccc32)CC1 [Clozapine, 8-chloro-11-(4-methyl-1-piperazinyl)-5H-dibenzo[b,e][1,4]diazepine] | 4.11 g | – | – | – | –
2 | CN(C)C(=N)N=C(N)N [Metformin, metformin] | – | somewhat higher average weight relative to the control group | 266 g | 331 g | effect on the weight gain induced by olanzapine (female Wistar rats [1]; agent together with olanzapine 1 mg/kg, 28 days): did not reduce
3 | Cc1cc2c(s1)Nc1ccccc1N=C2N1CCN(C)CC1 [Olanzapine, 2-methyl-4-(4-methyl-1-piperazinyl)-10H-thieno[2,3-b][1,5]-benzodiazepine] | 3.5 g | high average weight relative to the control group | 330 g | – | –
4 | Cc1nc2n(c(=O)c1CCN1CCC(c3noc4cc(F)ccc34)CC1)CCCC2 [Risperidone, risperidone] | – | – | – | – | effect on body weight gain relative to the control group (female Wistar rats [2]; agent alone, 21 days): increased body weight gain relative to the control group; Body weight gain (female Wistar rats [2]; risperidone alone 0.005 mg/kg s.c. once daily): 39.7 g; Body weight gain (female Wistar rats [2]; risperidone alone 0.05 mg/kg s.c. once daily): 41 g
5 | CN(CCOc1ccc(CC2SC(=O)NC2=O)cc1)c1ccccn1 (stereo not shown) [Rosiglitazone, rosiglitazone] | – | – | 284 g | 359 g | –
